Data reported in ChEMBL document CHEMBL4825757, “Optimization of 4,6-Disubstituted Pyrido[3,2-d]pyrimidines as Dual MNK/PIM Inhibitors to Inhibit Leukemia Cell Growth” (J Med Chem, 2021).
The source made the active and inactive calls. The rule behind the calls is not given here.

What was measured:
[1] = target: MAP kinase-interacting serine/threonine-protein kinase 2 (Homo sapiens, UniProt Q9HBH9); test: Inhibition of MKN2 (unknown origin) in presence of ATP by HTRF assay
MOLM-13 [2] = test: Antiproliferative activity against human MOLM13 cells assessed as reduction of cell viability incubated for 72 hrs by trypan blue staining based cell counting analysis; assay type: functional
[3] = target: T1, MAP kinase-interacting serine/threonine-protein kinase 1 (Homo sapiens, UniProt Q9BUB5); test: Inhibition of MKN1 (unknown origin) at 1 uM in presence of ATP by HTRF assay
Target sequence in this assay (Q9BUB5 whole entry, looked up): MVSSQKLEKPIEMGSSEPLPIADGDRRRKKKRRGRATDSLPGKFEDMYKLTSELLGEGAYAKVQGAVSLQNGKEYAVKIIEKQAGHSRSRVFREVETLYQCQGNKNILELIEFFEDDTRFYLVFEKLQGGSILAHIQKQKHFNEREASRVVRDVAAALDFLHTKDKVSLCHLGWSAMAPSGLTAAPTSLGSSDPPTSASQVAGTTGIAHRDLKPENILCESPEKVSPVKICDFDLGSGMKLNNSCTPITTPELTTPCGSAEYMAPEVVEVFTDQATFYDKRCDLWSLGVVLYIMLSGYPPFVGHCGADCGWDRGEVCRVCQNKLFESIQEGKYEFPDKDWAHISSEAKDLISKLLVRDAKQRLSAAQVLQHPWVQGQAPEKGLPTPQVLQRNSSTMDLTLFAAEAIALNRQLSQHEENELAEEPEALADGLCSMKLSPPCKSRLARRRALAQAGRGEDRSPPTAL

[4] = target: T1, MAP kinase-interacting serine/threonine-protein kinase 1; test: Inhibition of MKN1 (unknown origin) in presence of ATP by HTRF assay
Target sequence in this assay (Q9BUB5 whole entry): as the sequence (Q9BUB5 whole entry, looked up) above

[5] = Intrinsic clearance in rat liver microsomes preincubated for 10 mins followed by NADPH addition and further incubated upto 60 mins by LC-MS/MS analysis; assay type: ADME, Microsome; details: time <=70 min, read-out: CLH
[6] = Intrinsic clearance in human liver microsomes preincubated for 10 mins followed by NADPH addition and further incubated upto 60 mins by LC-MS/MS analysis; assay type: ADME, Microsome; details: time <=70 min, read-out: CLH
[7] = Metabolic stability in rat liver microsomes assessed as half life preincubated for 10 mins followed by NADPH addition and further incubated upto 60 mins by LC-MS/MS analysis; assay type: ADME, Microsome; details: time <=70 min
MOLM-13 [8] = test: Induction of apoptosis in human MOLM-13 cells assessed as late apoptotic cells at 2 uM incubated for 12 hrs by annexin-V and propidium iodide staining based flow cytometry analysis (reference value: 3.03%); assay type: functional
MOLM-13 [9] = test: Induction of cell cycle arrest in human MOLM-13 cells assessed as sub-G1 phase at 1 uM incubated for 12 hr by propidium iodide based flow cytometry analysis (Rvb= 4.78%); assay type: functional
K562 [10] = test: Antiproliferative activity against human K562 cells assessed as reduction of cell viability incubated for 72 hrs by trypan blue staining based cell counting analysis; assay type: functional
MOLM-13 [11] = test: Induction of apoptosis in human MOLM-13 cells assessed as late apoptotic cells at 1 uM incubated for 12 hrs by annexin-V and propidium iodide staining based flow cytometry analysis (reference value: 3.03%); assay type: functional
[12] = target: MAP kinase-interacting serine/threonine-protein kinase 1/2 (Homo sapiens) (UniProt Q9HBH9+Q9BUB5); test: Inhibition of MNK1/MNK2 in human MOLM-13 cells assessed as reduction in eIF4E phosphorylation at 1 to 2 uM incubated for 12 hrs by western blot analysis; assay type: cell-based; details: dose 1-2 µM
MOLM-13 [13] = test: Downregulation of c-myc levels in human MOLM-13 cells at 1 to 2 uM incubated for 12 hrs by western blot analysis; assay type: functional, cell-based; details: dose 1-2 µM
[14] = target: T2, Serine/threonine-protein kinase PIM (Homo sapiens) (UniProt P11309+Q9P1W9+Q86V86); test: Inhibition of PIM in human MOLM-13 cells assessed as reduction in phosphorylated 4EBP1 at 1 to 2 uM incubated for 12 hrs by western blot analysis; assay type: cell-based; details: dose 1-2 µM
T2 sequence (P11309 whole entry, looked up): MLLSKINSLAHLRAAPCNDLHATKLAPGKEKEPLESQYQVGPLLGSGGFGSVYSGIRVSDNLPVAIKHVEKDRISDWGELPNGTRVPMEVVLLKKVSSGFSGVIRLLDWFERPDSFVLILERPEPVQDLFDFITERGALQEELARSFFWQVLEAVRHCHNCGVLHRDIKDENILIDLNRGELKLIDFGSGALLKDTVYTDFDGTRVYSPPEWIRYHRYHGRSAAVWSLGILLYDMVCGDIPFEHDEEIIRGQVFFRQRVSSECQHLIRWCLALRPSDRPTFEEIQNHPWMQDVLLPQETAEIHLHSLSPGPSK
T2 sequence (Q9P1W9 whole entry, looked up): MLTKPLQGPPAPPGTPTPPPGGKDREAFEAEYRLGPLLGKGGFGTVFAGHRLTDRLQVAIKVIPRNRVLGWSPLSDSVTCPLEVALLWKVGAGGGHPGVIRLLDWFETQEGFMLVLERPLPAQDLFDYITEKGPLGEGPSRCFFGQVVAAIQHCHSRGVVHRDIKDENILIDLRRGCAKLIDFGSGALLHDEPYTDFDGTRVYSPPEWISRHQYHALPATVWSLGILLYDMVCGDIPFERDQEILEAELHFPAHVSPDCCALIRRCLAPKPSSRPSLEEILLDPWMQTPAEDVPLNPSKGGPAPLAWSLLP

MOLM-13 [15] = test: Induction of apoptosis in human MOLM-13 cells assessed as early apoptotic cells at 2 uM incubated for 12 hrs by annexin-V and propidium iodide staining based flow cytometry analysis (reference value: 5.40%); assay type: functional
MOLM-13 [16] = test: Induction of apoptosis in human MOLM-13 cells assessed as live cells at 2 uM incubated for 12 hrs by annexin-V and propidium iodide staining based flow cytometry analysis (reference value: 91.49%); assay type: functional
MOLM-13 [17] = test: Induction of apoptosis in human MOLM-13 cells assessed as early apoptotic cells at 1 uM incubated for 12 hrs by annexin-V and propidium iodide staining based flow cytometry analysis (reference value: 5.40%); assay type: functional
K562 [18] = test: Downregulation of c-myc levels in human K562 cells at 1 to 2 uM incubated for 24 hrs by western blot analysis; assay type: functional, cell-based; details: dose 1-2 µM
K562 [19] = test: Downregulation of mcl-1 levels in human K562 cells at 1 to 2 uM incubated for 24 hrs by western blot analysis; assay type: functional, cell-based; details: dose 1-2 µM
MOLM-13 [20] = test: Induction of cell cycle arrest in human MOLM-13 cells assessed as G1 phase at 2 uM incubated for 12 hr by propidium iodide based flow cytometry analysis (Rvb= 51.29%); assay type: functional
MOLM-13 [21] = test: Induction of cell cycle arrest in human MOLM-13 cells assessed as sub-G1 phase at 2 uM incubated for 12 hr by propidium iodide based flow cytometry analysis (Rvb= 4.78%); assay type: functional
MOLM-13 [22] = test: Downregulation of cyclin-D1 levels in human MOLM-13 cells at 1 to 2 uM incubated for 12 hrs by western blot analysis; assay type: functional, cell-based; details: dose 1-2 µM
MOLM-13 [23] = test: Downregulation of mcl-1 levels in human MOLM-13 cells at 1 to 2 uM incubated for 12 hrs by western blot analysis; assay type: functional, cell-based; details: dose 1-2 µM
K562 [24] = test: Downregulation of cyclin-D1 levels in human K562 cells at 1 to 2 uM incubated for 24 hrs by western blot analysis; assay type: functional, cell-based; details: dose 1-2 µM
MOLM-13 [25] = test: Induction of apoptosis in human MOLM-13 cells assessed as necrotic cells at 1 uM incubated for 12 hrs by annexin-V and propidium iodide staining based flow cytometry analysis (reference value: 0.06%); assay type: functional
MOLM-13 [26] = test: Induction of apoptosis in human MOLM-13 cells assessed as live cells at 1 uM incubated for 12 hrs by annexin-V and propidium iodide staining based flow cytometry analysis (reference value: 91.49%); assay type: functional
HL-60 = test: Antiproliferative activity against human HL-60 cells assessed as reduction of cell viability incubated for 72 hrs by trypan blue staining based cell counting analysis; assay type: functional
MOLM-13 [27] = test: Induction of cell cycle arrest in human MOLM-13 cells assessed as G1 phase at 1 uM incubated for 12 hr by propidium iodide based flow cytometry analysis (Rvb= 51.29%); assay type: functional
MOLM-13 [28] = test: Induction of apoptosis in human MOLM-13 cells assessed as necrotic cells at 2 uM incubated for 12 hrs by annexin-V and propidium iodide staining based flow cytometry analysis (reference value: 0.06%); assay type: functional
[29] = target: T2, Serine/threonine-protein kinase PIM (Homo sapiens); test: Inhibition of PIM in human MOLM-13 cells assessed as reduction of BAD phosphorylation at 1 to 2 uM incubated for 12 hrs by western blot analysis; assay type: cell-based; details: dose 1-2 µM

Chain of MAP kinase-interacting serine/threonine-protein kinase 2 (Q9HBH9 whole entry): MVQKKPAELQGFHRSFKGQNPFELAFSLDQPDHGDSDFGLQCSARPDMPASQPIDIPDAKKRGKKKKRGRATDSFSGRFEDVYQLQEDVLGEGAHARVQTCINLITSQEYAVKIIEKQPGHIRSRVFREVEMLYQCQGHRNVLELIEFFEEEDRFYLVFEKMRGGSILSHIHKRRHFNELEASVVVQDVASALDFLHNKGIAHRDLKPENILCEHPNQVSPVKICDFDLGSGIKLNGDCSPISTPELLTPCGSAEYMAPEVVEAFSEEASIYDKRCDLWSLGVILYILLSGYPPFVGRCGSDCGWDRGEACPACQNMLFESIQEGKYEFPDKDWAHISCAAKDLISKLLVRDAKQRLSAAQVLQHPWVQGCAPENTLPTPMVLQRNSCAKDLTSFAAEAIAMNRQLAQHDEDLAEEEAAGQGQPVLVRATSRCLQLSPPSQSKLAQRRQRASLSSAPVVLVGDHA

O=C(c1ccc(-c2ccc3ncnc(Nc4ccc(O)cc4)c3n2)cc1)N1CCNCC1
IC50 [1]: 41 nM | GI50 (MOLM-13 [2]): 11200 nM | inhibition [3]: 86% | IC50 [4]: 8.5 nM

N#Cc1ccc(Nc2ncnc3ccc(-c4ccc(C(=O)N5CCNCC5)cc4)nc23)cc1
IC50 [1]: 43 nM | inhibition [3]: 88% | IC50 [4]: 0.15 nM

O=C(c1cccc(C#Cc2ccccc2Nc2ncnc3ccc(Cl)nc23)c1)N1CCNCC1
IC50 [1]: 5000 nM | IC50 [4]: > 10000 nM

O=C(c1ccc(-c2ccc3ncnc(Nc4ccc(F)cc4)c3n2)cc1)N1CCNCC1
IC50 [1]: 26 nM | GI50 (MOLM-13 [2]): 7930 nM | inhibition [3]: 83% | IC50 [4]: 1.1 nM

O=C(c1cccc(C#Cc2ccccc2Nc2ncnc3ccc(Cl)nc23)c1)N1CCOCC1
IC50 [1]: > 10000 nM | IC50 [4]: > 10000 nM

CN(C)C(=O)c1cccc(C#Cc2ccccc2Nc2ncnc3ccc(Cl)nc23)c1
IC50 [1]: > 10000 nM | IC50 [4]: > 10000 nM

O=C(c1ccc(-c2ccc3ncnc(Nc4ccccc4F)c3n2)cc1)N1CCNCC1
IC50 [1]: 10 nM | GI50 (MOLM-13 [2]): 3080 nM | inhibition [3]: 34%

O=C(c1cccc(-c2ccc3ncnc(Nc4ccccc4)c3n2)c1)N1CCNCC1
IC50 [1]: 624 nM | GI50 (MOLM-13 [2]): 3920 nM | inhibition [3]: 57%

O=C(c1cccc(-c2ccc3ncnc(Nc4ccc(F)cc4)c3n2)c1)N1CCNCC1
IC50 [1]: 52 nM | GI50 (MOLM-13 [2]): 6050 nM | inhibition [3]: 70%

Cc1ncc2n1-c1ccc(Cl)cc1C(c1ccccc1F)=NC2 [MIDAZOLAM]
CLint scaled [5]: 939 mL/min/kg | CLint scaled [6]: 219 mL/min/kg | half-life [7]: 2.64 min

Cc1c(C(=O)N2CCNCC2)oc2ccc(Nc3ncnc4ccc(Cl)nc34)cc12
IC50 [1]: 1900 nM | IC50 [4]: > 10000 nM

c1ccc(Nc2ncnc3ccc(-c4ccccc4)nc23)cc1
IC50 [1]: 612 nM | inhibition [3]: 0%

CCCNC(=O)c1cccc(C#Cc2ccccc2Nc2ncnc3ccc(Cl)nc23)c1
IC50 [1]: 3900 nM | IC50 [4]: > 10000 nM

Cc1ccc(Nc2ncnc3ccc(-c4ccc(C(=O)N5CCNCC5)cc4)nc23)cc1
IC50 [1]: 62 nM | GI50 (MOLM-13 [2]): 3540 nM | inhibition [3]: 12%

CNC(=O)c1ccc(-c2ccc3ncnc(Nc4ccccc4)c3n2)cc1
IC50 [1]: 58 nM | GI50 (MOLM-13 [2]): 1830 nM | inhibition [3]: 37%

CNC(=O)c1cccc(C#Cc2ccccc2Nc2ncnc3ccc(Cl)nc23)c1
IC50 [1]: 4900 nM | IC50 [4]: > 10000 nM

CN1CCC(CNc2ccc3ncc(-c4cccc(OC(F)(F)F)c4)n3n2)CC1 [SGI-1776]
Activity (MOLM-13 [8]): 4.23% | Activity (MOLM-13 [9]): 15.68% | GI50 (K562 [10]): 2190 nM | Activity (MOLM-13 [11]): 4.05% | inhibition [12]: inactive | Activity (MOLM-13 [13]): Active | inhibition [14]: Active | Activity (MOLM-13 [15]): 31.08% | Activity (MOLM-13 [16]): 64.56% | Activity (MOLM-13 [17]): 24.57% | Activity (K562 [18]): inactive | Activity (K562 [19]): inactive | Activity (MOLM-13 [20]): 58.06% | Activity (MOLM-13 [21]): 26.08% | Activity (MOLM-13 [22]): Active | Activity (MOLM-13 [23]): Active | Activity (K562 [24]): inactive | GI50 (MOLM-13 [2]): 130 nM | Activity (MOLM-13 [25]): 0.22% | Activity (MOLM-13 [26]): 71.17% | GI50 (HL-60): 1280 nM | Activity (MOLM-13 [27]): 67.94% | Activity (MOLM-13 [28]): 0.13% | inhibition [29]: Active

COc1cc(Nc2ncnc3ccc(-c4ccc(C(=O)N5CCNCC5)cc4)nc23)ccc1F
IC50 [1]: 25 nM | GI50 (MOLM-13 [2]): 2850 nM | inhibition [3]: 90% | IC50 [4]: 1 nM

COc1ccc(Nc2ncnc3ccc(-c4ccc(C(=O)N5CCNCC5)cc4)nc23)cc1
IC50 [1]: 111 nM | GI50 (MOLM-13 [2]): 10100 nM | inhibition [3]: 7%

CCCNC(=O)c1oc2ccc(Nc3ncnc4ccc(Cl)nc34)cc2c1C
IC50 [1]: 1900 nM | IC50 [4]: > 10000 nM

O=C(c1ccc(-c2ccc3ncnc(Nc4ccc(C(F)(F)F)cc4)c3n2)cc1)N1CCNCC1
IC50 [1]: 41 nM | GI50 (MOLM-13 [2]): 2670 nM | inhibition [3]: 0%

O=C(c1ccc(-c2ccc3ncnc(Nc4cccc(F)c4)c3n2)cc1)N1CCNCC1
IC50 [1]: 33 nM | GI50 (MOLM-13 [2]): 3800 nM | inhibition [3]: 70%

CNC(=O)c1oc2ccc(Nc3ncnc4ccc(Cl)nc34)cc2c1C
IC50 [1]: 2500 nM | IC50 [4]: > 10000 nM

COc1cc(F)ccc1Nc1ncnc2ccc(-c3ccc(C(=O)N4CCNCC4)cc3)nc12
IC50 [1]: 29 nM | GI50 (MOLM-13 [2]): 1880 nM | inhibition [3]: 89% | IC50 [4]: 1.2 nM

Cc1c(C(=O)N2CCOCC2)oc2ccc(Nc3ncnc4ccc(Cl)nc34)cc12
IC50 [1]: 1800 nM | IC50 [4]: > 10000 nM

COC(=O)c1cccc(C#Cc2ccccc2Nc2ncnc3ccc(Cl)nc23)c1
IC50 [1]: 4200 nM | IC50 [4]: > 10000 nM

Cc1c(C(=O)N(C)C)oc2ccc(Nc3ncnc4ccc(Cl)nc34)cc12
IC50 [1]: 2200 nM | IC50 [4]: > 10000 nM

COC(=O)c1oc2ccc(Nc3ncnc4ccc(Cl)nc34)cc2c1C
IC50 [1]: 4800 nM | IC50 [4]: > 10000 nM

O=C(c1ccc(-c2ccc3ncnc(Nc4ccccc4)c3n2)cc1)N1CCNCC1
IC50 [1]: 36 nM | GI50 (MOLM-13 [2]): 3190 nM | inhibition [3]: 71%
